{
  "source": "patent US5308843A",
  "about": "“Method of inhibiting mammalian topoisomerase II and malignant cell growth in mammals, with substituted (S)-3-methyl-7-oxo-2,3-dihydro-7H-pyrido[1,2,3-de][1,4 ]-benzoxazine(and-benzothiazine)-6-carboxylic acids” (Sterling Drug Inc., priority 1990, dated 1994)",
  "key": {"[1]": {"experiment": "Toxicity observations in mice of the in vivo antitumor trials", "source_text": "Dose limiting toxicity appeared to be leukopenia, based on small spleen sizes in necropsy of mice dying at lethal dosage levels. […] Host recovery was rapid, with mice regaining their lost body weight within two to five days post nadir (at the highest non-toxic dosage levels)."}, "several tumor systems": {"system": "several tumor systems", "experiment": "Antitumor activity in mice against several tumor systems (overall statement)", "type": "in vivo", "source_text": "(§1) In vivo Antitumor Assay Procedure\n(§2) Mice: Inbred: C3H/He; and Hybrids: B6D2F1 (C57BL/6 females×DBA/2 males), CD2F1 (Balb/c females×DBA/2 males) and B6C3F1 (C57BL/6×C3H) were bred at Wayne State University from strains obtained from the Frederick Cancer Research Facility, Frederick, Md. or from commercial suppliers.\nTumors: Murine Tumors: P388 leukemia and the following transplantable solid tumors of mice were used for in vivo testing: B16 melanoma, pancreatic ductal adenocarcinoma No. 03, colon adenocarcinoma No. 38 and mammary ductal adenocarcinoma No. 16/C. All tumors are in the Developmental Therapeutics Program frozen tumor repository, maintained by the Biological Testing Branch, Frederick, Md. Each has a detailed description, code identification number, and list of references at the National Tumor Repository. Tumors were maintained in the mouse strain of origin and were transplanted in the appropriate F1 hybrid (or the strain of origin) for therapy trials. The mice were supplied food and water ad libitum. […]\nEnd Points for Assessing Antitumor Activity: Quantitative end points used to assess antitumor activity included % Increased Life Span (% ILS), Tumor Cell Kill (Log10 kill), and Tumor Growth Inhibition (T/C). […]"}, "B16 melanoma": {"system": "B16 melanoma", "experiment": "In vivo antitumor assay, B16 melanoma (IP)", "set-up": "species or system mice", "source_text": "as §1, §2\n(§3) Tumors: Murine Tumors: P388 leukemia and the following transplantable solid tumors of mice were used for in vivo testing: B16 melanoma, pancreatic ductal adenocarcinoma No. 03, colon adenocarcinoma No. 38 and mammary ductal adenocarcinoma No. 16/C. All tumors are in the Developmental Therapeutics Program frozen tumor repository, maintained by the Biological Testing Branch, Frederick, Md. Each has a detailed description, code identification number, and list of references at the National Tumor Repository. Tumors were maintained in the mouse strain of origin and were transplanted in the appropriate F1 hybrid (or the strain of origin) for therapy trials. The mice were supplied food and water ad libitum.\n(§4) For P388 leukemia and B16 melanoma studies the tumor cells were implanted IP on day zero and treatment was started on day one (also IP). Titered controls were also included to facilitate the calculation of tumor cell kill.\n(§5) End Points for Assessing Antitumor Activity: Quantitative end points used to assess antitumor activity included % Increased Life Span (% ILS), Tumor Cell Kill (Log10 kill), and Tumor Growth Inhibition (T/C). Long Term Survivors (45 or 60 day) were excluded from calculations of % ILS and Tumor Cell Kill.\n(§6) Endpoints were calculated as follows: [formula] where Dt is the median day of death for treated and Dc is the median day of death for control groups.\n(§7) The log10 cell kill was calculated from the following formula: [formula] where T-C is the tumor difference in the median day of death between the treated (T) and the control (C) groups and Td is the tumor doubling time (in days), the latter estimated from the best fit straight line from a log-linear growth plot of the control-group tumors in exponential growth. The conversion of the T-C values to log10 cell kill is possible because the Td for tumors regrowing post-treatment approximated the Td values of the tumors in untreated control mice."}, "[2]": {"experiment": "In vivo antitumor assay, B16 melanoma (IP)", "set-up": "species or system mice", "details": "mouse, in vivo; B16(IP) 0.5 ml 10% brie; drug IP; QD1,5,9; read-out: Maximum Tolerated Total Dose", "source_text": "as §1, §2, §3, §4, §5, §6, §7"}, "P388 leukemia": {"system": "P388 leukemia", "experiment": "In vivo antitumor assay, P388 leukemia (IP)", "set-up": "species or system mice", "details": "for % ILS / Long Term Survivors: P388(IP) 10^6 cells, drug IP", "source_text": "as §1, §2, §3, §4, §5, §6, §7"}, "[3]": {"experiment": "In vivo antitumor assay, P388 leukemia (IP)", "set-up": "species or system mice", "details": "mouse, in vivo, P388(IP) 10^6 cells, drug IP, read-out: Maximum Tolerated Total Dose", "source_text": "as §1, §2, §3, §4, §5, §6, §7"}},
  "note": "“Also recorded” adds a separate entry of the source.",
  "data": [
    {"smiles": "Cc1cc(-c2c(F)cc3c(=O)c(C(=O)O)cn4c3c2SC[C@@H]4C)cc(C)n1", "note": "[Example 5, (S)-10-(2,6-Dimethyl-4-pyridinyl)-9-fluoro-3-methyl-7-oxo-2,3-dihydro-7H-pyrido[1,2,3-de][1,4]benzothiazine-6-carboxylic acid]", "values": [
      {"measurement": "Dose limiting toxicity", "setting": "[1]; based on small spleen sizes in necropsy of mice dying at lethal dosage levels", "result": "leukopenia"},
      {"measurement": "host recovery (in words)", "setting": "[1]; mouse, in vivo", "result": "rapid"},
      {"measurement": "host recovery: time to regain lost body weight post nadir", "setting": "[1]; mouse, in vivo", "result": "two to five"},
      {"measurement": "tolerability", "setting": "[1]; mouse, in vivo", "result": "well tolerated with no long delayed toxicity problems"},
      {"measurement": "antineoplastic activity (in words)", "setting": "several tumor systems", "result": "found to possess antineoplastic activity as evidenced by its activity in reducing the size of and curing tumors, and increasing the survival time of the mice"},
      {"measurement": "% ILS", "setting": "B16 melanoma; B16(IP), drug IP, QD1,5,9, 1500 mg/kg total", "result": 66, "unit": "%"},
      {"measurement": "Long Term Survivors", "setting": "B16 melanoma; B16(IP), drug IP, QD1,5,9, 1500 mg/kg total, footnote 5: Day 60, tumor evident", "result": "1/6"},
      {"measurement": "antitumor activity (in words)", "setting": "B16 melanoma; B16 melanoma IP", "result": "Day 60; tumor evident; also recorded: good activity"},
      {"measurement": "log10 tumor cell kill", "setting": "B16 melanoma; B16 melanoma IP", "result": 2.0, "unit": "log10"},
      {"measurement": "MTD", "setting": "[2]", "result": 1500, "unit": "mg/kg"},
      {"measurement": "% ILS", "setting": "P388 leukemia; QD1,5,9, 1014 mg/kg total", "result": 90, "unit": "%"},
      {"measurement": "Long Term Survivors", "setting": "P388 leukemia; QD1,5,9, 1014 mg/kg total", "result": "0/6"},
      {"measurement": "% ILS", "setting": "P388 leukemia; QD1-7, 504 mg/kg total", "result": 92, "unit": "%"},
      {"measurement": "Long Term Survivors", "setting": "P388 leukemia; QD1-7, 504 mg/kg total", "result": "0/5"},
      {"measurement": "antitumor activity (in words)", "setting": "P388 leukemia; P388, 90% ILS", "result": "excellent activity"},
      {"measurement": "log10 tumor cell kill", "setting": "P388 leukemia; P388, equal to 90% ILS", "result": "5.2-7.0 log10"},
      {"measurement": "MTD", "setting": "[3]; QD1,5,9, vehicle 5% EtOH, 1% NaHCO3, 0.3% tween40 (pH 8.3)", "result": 1010, "unit": "mg/kg"},
      {"measurement": "MTD", "setting": "[3]; QD1-7, vehicle 3% EtOH, 3% NaHCO3, 1% tween40", "result": 504, "unit": "mg/kg"}
    ]}
  ]
}
